Values joined by “and” are separate entries in the source; they are usually repeats but may differ in a detail not shown here. Equal values may be shown once.
Tests used:
[1] = pharmacokinetics test; assay type: in vivo; details: single i.v. injection 5 mg/kg, female SD rats
[2] = system: CHOP, BiP, LC3 in mouse lung cancer cells (6#); assay: ER stress and autophagy markers by immunoblotting; assay type: cell-based
[3] = system: HRAS, KRAS and RAP1A prenylation in U2OS cells expressing Flag-KRAS G12D; assay: cell fractionation assay of protein prenylation; assay type: cell-based; details: 48 h, BPH-1222 10 μM, BPH-714 10 μM, zoledronate 20 μM
[4] = molecular target: T1, human GGPPS (Homo sapiens, UniProt O95749); assay: GGPPS enzymatic inhibition assay; assay type: biochemical; details: read-out: GGPPS Ki, in vitro
T1 sequence (O95749 1-300): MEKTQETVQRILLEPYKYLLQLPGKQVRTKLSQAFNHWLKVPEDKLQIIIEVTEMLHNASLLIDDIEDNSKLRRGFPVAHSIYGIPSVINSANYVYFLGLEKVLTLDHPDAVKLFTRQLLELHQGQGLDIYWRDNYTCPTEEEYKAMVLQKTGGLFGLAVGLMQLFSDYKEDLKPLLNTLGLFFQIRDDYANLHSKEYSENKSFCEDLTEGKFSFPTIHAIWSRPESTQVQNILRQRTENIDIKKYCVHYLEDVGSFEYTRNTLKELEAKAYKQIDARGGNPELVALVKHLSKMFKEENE

[5] = system: GTP-bound KRAS in mouse lung cancer cells (M3L2); assay: KRAS-GTP pull-down with RAF-1 RBD beads; assay type: cell-based; details: 48 h
[6] = system: Mouse lung cancer cells (6#); assay: drug treatment of 6# cells, phase-contrast microscopy; assay type: cell-based; details: for effect on cell proliferation / cell death: FTI-277 15 μM, GGTI-298 15 μM, BPH-1222 10 μM
[7] = system: FPPS; details: cited from earlier work
[8] = system: p70 S6 kinase and 4E-BP1 phosphorylation in mouse lung cancer cells (6#); assay: mTOR substrate phosphorylation by immunoblotting; assay type: cell-based; details: 6# cells, rapamycin 0.1 μM, 48 h
[9] = system: KRAS tumors; assay: zoledronate plus rapamycin in vivo; details: fig. S4D, E

With CCCCCCCCn1cc[n+](CC(O)(P(=O)([O-])O)P(=O)(O)O)c1 (centres unmarked) [BPH-1222] the pharmacokinetic properties [1] was “good pharmacokinetic properties”, the “ER stress markers CHOP and BiP protein levels” value ([2]; 6# cells, 10 μM, 1, 2, or 3 days) was “potently induced” and the “time to autophagy induction (accumulation of PE-conjugated LC3)” value ([2]; tumor cells treated with BPH-1222) was 2 to 3 days. The “inhibition of protein farnesylation and geranylgeranylation (HRAS degradation, RAP1A dislodgement)” value [3] was “robustly inhibited protein farnesylation as well as protein geranylgeranylation”, the Ki [4] was ~300 nM and 300 nM and the “amount of GTP-bound KRAS” value [5] was “greatly reduced the amount of GTP-bound KRAS”.

With COC(=O)[C@H](CCSC)NC(=O)c1ccc(NC[C@@H](N)CS)cc1-c1ccccc1 [FTI-277] the “effect on cell proliferation / cell death” value [6] was “little effect on cell proliferation”.

For CC(C)=CCC/C(C)=C/CC/C(C)=C/CC/C(C)=C/CO [GGOH, geranylgeraniol], the “rescue from bisphosphonate-induced cell death” value ([6]; supplementation 10 μM with BPH-1222 10 μM, 48 h) was “substantially rescued cells”.

In the case of COC(=O)[C@H](CC(C)C)NC(=O)c1ccc(NC[C@@H](N)CS)cc1-c1cccc2ccccc12 [GGTI-298], the “effect on cell proliferation / cell death” value [6] is reported as “little effect on cell proliferation”.

For NCCCC(O)(P(=O)(O)O)P(=O)(O)O [alendronate], the FPPS inhibition [7] is given as “inhibit FPPS”.

In the case of CO[C@H]1C[C@@H]2CC[C@@H](C)[C@@](O)(O2)C(=O)C(=O)N2CCCC[C@H]2C(=O)O[C@H]([C@H](C)C[C@@H]2CC[C@@H](O)[C@H](OC)C2)CC(=O)[C@H](C)/C=C(\C)[C@@H](O)[C@@H](OC)C(=O)[C@H](C)C[C@H](C)/C=C/C=C/C=C/1C [rapamycin], the “phosphorylation of mTOR substrates (p70 S6 kinase and 4E-BP1)” value [8] is reported as “potently blocked phosphorylation”.

For O=P(O)(O)C(O)(Cc1cccnc1)P(=O)(O)O [risedronate], the FPPS inhibition [7] is listed as “inhibit FPPS”.

In the case of O=P(O)(O)C(O)(Cn1ccnc1)P(=O)(O)O [zoledronate], the “synergy with rapamycin for killing KRAS tumors” value [9] is listed as “synergizes with rapamycin in vivo” and the FPPS inhibition [7] is listed as “inhibit FPPS”.
